In US12662490B2, “Heterocyclic compounds” (Hoffmann-La Roche Inc., priority 2019, dated 2026):

Target: T1, MAGL (Homo sapiens, UniProt Q99685)
T1 sequence (Q99685 1-303): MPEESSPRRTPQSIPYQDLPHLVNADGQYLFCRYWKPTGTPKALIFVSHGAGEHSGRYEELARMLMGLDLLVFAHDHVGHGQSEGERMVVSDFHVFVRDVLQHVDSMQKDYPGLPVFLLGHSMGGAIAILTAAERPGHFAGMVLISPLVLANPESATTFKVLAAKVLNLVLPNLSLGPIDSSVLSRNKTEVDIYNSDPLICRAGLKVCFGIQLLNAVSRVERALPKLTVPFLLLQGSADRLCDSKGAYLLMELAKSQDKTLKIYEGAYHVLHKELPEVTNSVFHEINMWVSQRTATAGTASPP
Experiment: 2-AG assay (MAGL inhibitory activity; hydrolysis of 2-arachidonoylglycerol to arachidonic acid followed by mass spectrometry)
Type: biochemical
Conditions: 15 min preincubation at RT, 8 μM 2-arachidonoylglycerol, 30 min at RT, RapidFire MS readout
Procedure: Compounds were profiled for MAGL inhibitory activity by determining the enzymatic activity by following the hydrolysis of the natural substrate 2-arachidonoylglycerol (2-AG) resulting in arachidonic acid, which can be followed by mass spectrometry. This assay is hereinafter abbreviated “2-AG assay”.
The 2-AG assay was carried out in 384 well assay plates (PP, Greiner Cat #784201) in a total volume of 20 μL. Compound dilutions were made in […] (VWR Chemicals 23500.297) in a polypropylene plate in 3-fold dilution steps to give a final concentration range in the assay from 12.5 μM to […]. 0.25 μL compound dilutions (100% DMSO) were added to 9 μL MAGL in assay buffer (50 mM TRIS (GIBCO, 15567-027), 1 mM EDTA (Fluka, 03690-100 mL), 0.010 (v/v) Tween. After shaking, the plate was incubated for 15 min at RT. To start the reaction, 10 μL 2-arachidonoylglycerol in assay buffer was added. The final concentrations in the assay was […] and 8 μM 2-arachidonoylglyerol. After shaking and 30 min incubation at RT, the reaction was quenched by the addition of 40 μL of ACN containing 4 μM of d8-arachidonic acid. The amount of arachidonic acid was traced by an online SPE system (Agilent Rapidfire) coupled to a triple quadrupole mass spectrometer (Agilent 6460). A C18 SPE cartridge (G9205A) was used in an ACN/water liquid setup. The mass spectrometer was operated in negative electrospray mode following the mass transitions 303.1→259.1 for arachidonic acid and 311.1→267.0 for d8-arachidonic acid. The activity of the compounds was calculated based on the ratio of intensities [arachidonic acid/d8-arachidonic acid].

## COc1cccc(C(=O)N2CCN3C[C@@H](c4ccc(F)c(Br)c4)OC[C@@H]3C2)c1Cl [Example 6, [(3R,9aS)-3-(3-bromo-4-fluoro-phenyl)-3,4,6,7,9,9a-hexahydro-1H-pyrazino[2,1-c][1,4]oxazin-8-yl]-(2-chloro-3-methoxy-phenyl)methanone]
  IC50: 10.9 nM

## O=C(c1cnc2[nH]ncc2c1Cl)N1CCN2C[C@@H](c3ccc(F)c(Cl)c3)OC[C@@H]2C1 [Example 8, [(3R,9aS)-3-(3-chloro-4-fluoro-phenyl)-3,4,6,7,9,9a-hexahydro-1H-pyrazino[2,1-c][1,4]oxazin-8-yl]-(4-chloro-1H-pyrazolo[3,4-b]pyridin-5-yl)methanone]
  IC50: 705 nM

## COc1cccc(C(=O)N2CCN3C[C@@H](c4ccc(F)c(Cl)c4)OC[C@@H]3C2)c1F [Example 9, [(3R,9aS)-3-(3-chloro-4-fluoro-phenyl)-3,4,6,7,9,9a-hexahydro-1H-pyrazino[2,1-c][1,4]oxazin-8-yl]-(2-fluoro-3-methoxy-phenyl)methanone]
  IC50: 85.6 nM

## COc1cccc(C(=O)N2CCN3C[C@@H](c4ccc(F)c(-c5ccccc5)c4)OC[C@@H]3C2)c1Cl [Example 11, [(3R,9aS)-3-(4-fluoro-3-phenyl-phenyl)-3,4,6,7,9,9a-hexahydro-1H-pyrazino[2,1-c][1,4]oxazin-8-yl]-(2-chloro-3-methoxy-phenyl)methanone]
  IC50: 259 nM

## COc1cccc(C(=O)N2CCN3C[C@H](c4ccc(F)c(-c5ccccc5)c4)OC[C@@H]3C2)c1Cl [Example 12, [(3S,9aS)-3-(4-fluoro-3-phenyl-phenyl)-3,4,6,7,9,9a-hexahydro-1H-pyrazino[2,1-c][1,4]oxazin-8-yl]-(2-chloro-3-methoxy-phenyl)methanone]
  IC50: 575 nM

## CC#Cc1cc([C@@H]2CN3CCN(C(=O)c4cccc(OC)c4Cl)C[C@H]3CO2)ccc1F [Example 13, [(3R,9aS)-3-(4-fluoro-3-prop-1-ynyl-phenyl)-3,4,6,7,9,9a-hexahydro-1H-pyrazino[2,1-c][1,4]oxazin-8-yl]-(2-chloro-3-methoxy-phenyl)methanone]
  IC50: 238 nM

## COc1cccc(C(=O)N2CCN3C[C@@H](c4ccc(F)c(C#N)c4)OC[C@@H]3C2)c1Cl [Example 14, [(3R,9aS)-3-(3-cyano-4-fluoro-phenyl)-3,4,6,7,9,9a-hexahydro-1H-pyrazino[2,1-c][1,4]oxazin-8-yl]-(2-chloro-3-methoxy-phenyl)methanone]
  IC50: 154 nM

## O=C(c1cnc2ccccc2c1Cl)N1CCN2C[C@@H](c3ccc(F)c(Cl)c3)OC[C@@H]2C1 [Example 16, [(3R,9aS)-3-(3-chloro-4-fluoro-phenyl)-3,4,6,7,9,9a-hexahydro-1H-pyrazino[2,1-c][1,4]oxazin-8-yl]-(4-chloro-3-quinolyl)methanone]
  IC50: 132 nM

## COc1cc(OC)c(Cl)c(C(=O)N2CCN3C[C@H](c4ccc(F)c(Cl)c4)OC[C@@H]3C2)c1 [Example 17, [(3S,9aS)-3-(3-chloro-4-fluoro-phenyl)-3,4,6,7,9,9a-hexahydro-1H-pyrazino[2,1-c][1,4]oxazin-8-yl]-(2-chloro-3,5-dimethoxy-phenyl)methanone]
  IC50: 4570 nM

## COc1cc(OC)c(Cl)c(C(=O)N2CCN3C[C@@H](c4ccc(F)c(Cl)c4)OC[C@@H]3C2)c1 [Example 18, [(3R,9aS)-3-(3-chloro-4-fluoro-phenyl)-3,4,6,7,9,9a-hexahydro-1H-pyrazino[2,1-c][1,4]oxazin-8-yl]-(2-chloro-3,5-dimethoxy-phenyl)methanone]
  IC50: 51.2 nM

## COc1ccc(C(=O)N2CCN3C[C@@H](c4ccc(F)c(Cl)c4)OC[C@@H]3C2)c(Cl)c1OC [Example 19, [(3R,9aS)-3-(3-chloro-4-fluoro-phenyl)-3,4,6,7,9,9a-hexahydro-1H-pyrazino[2,1-c][1,4]oxazin-8-yl]-(2-chloro-3,4-dimethoxy-phenyl)methanone]
  IC50: 305 nM

## Cc1cccc(C(=O)N2CCN3C[C@@H](c4ccc(F)c(Cl)c4)OC[C@@H]3C2)c1C#N [Example 20, 2-[(3R,9aS)-3-(3-chloro-4-fluoro-phenyl)-3,4,6,7,9,9a-xahydro-1H-pyrazino[2,1-c][1,4]oxazine-8-carbonyl]-6-methyl-benzonitrile]
  IC50: 121 nM

## O=C(c1cccc(OC(F)(F)F)c1F)N1CCN2C[C@@H](c3ccc(F)c(Cl)c3)OC[C@@H]2C1 [Example 21, [(3R,9aS)-3-(3-chloro-4-fluoro-phenyl)-3,4,6,7,9,9a-hexahydro-1H-pyrazino[2,1-c][1,4]oxazin-8-yl]-[2-fluoro-3-(trifluoromethoxy)phenyl]methanone]
  IC50: 746 nM

## O=C(c1cccc(-c2ccccc2)c1Cl)N1CCN2C[C@@H](c3ccc(F)c(Cl)c3)OC[C@@H]2C1 [Example 22, [(3R,9aS)-3-(3-chloro-4-fluoro-phenyl)-3,4,6,7,9,9a-hexahydro-1H-pyrazino[2,1-c][1,4]oxazin-8-yl]-(2-chloro-3-phenyl-phenyl)methanone]
  IC50: 16.1 nM

## COc1ccccc1-c1cccc(C(=O)N2CCN3C[C@@H](c4ccc(F)c(Cl)c4)OC[C@@H]3C2)c1Cl [Example 23, [(3R,9aS)-3-(3-chloro-4-fluoro-phenyl)-3,4,6,7,9,9a-hexahydro-1H-pyrazino[2,1-c][1,4]oxazin-8-yl]-[2-chloro-3-(2-methoxyphenyl)phenyl]methanone]
  IC50: 26.3 nM

## COc1cccc(C(=O)N2CCN3C[C@@H](c4ccc(F)c(C5CC5)c4)OC[C@@H]3C2)c1Cl [Example 24, [(3R,9aS)-3-(3-cyclopropyl-4-fluoro-phenyl)-3,4,6,7,9,9a-hexahydro-1H-pyrazino[2,1-c][1,4]oxazin-8-yl]-(2-chloro-3-methoxy-phenyl)methanone]
  IC50: 94.8 nM

## O=C(c1cccc(OC(F)F)c1Cl)N1CCN2C[C@@H](c3ccc(F)c(Cl)c3)OC[C@@H]2C1 [Example 25, [(3R,9aS)-3-(3-chloro-4-fluoro-phenyl)-3,4,6,7,9,9a-hexahydro-1H-pyrazino[2,1-c][1,4]oxazin-8-yl]-[2-chloro-3-(difluoromethoxy)phenyl]methanone]
  IC50: 131 nM

## Cc1[nH]ncc1-c1cccc(C(=O)N2CCN3C[C@@H](c4ccc(F)c(Cl)c4)OC[C@@H]3C2)c1Cl [Example 26, [(3R,9aS)-3-(3-chloro-4-fluoro-phenyl)-3,4,6,7,9,9a-hexahydro-1H-pyrazino[2,1-c][1,4]oxazin-8-yl]-[2-chloro-3-(5-methyl-1H-pyrazol-4-yl)phenyl]methanone]
  IC50: 10.6 nM

## Cc1ccncc1-c1cccc(C(=O)N2CCN3C[C@@H](c4ccc(F)c(Cl)c4)OC[C@@H]3C2)c1Cl [Example 27, [(3R,9aS)-3-(3-chloro-4-fluoro-phenyl)-3,4,6,7,9,9a-hexahydro-1H-pyrazino[2,1-c][1,4]oxazin-8-yl]-[2-chloro-3-(4-methyl-3-pyridyl)phenyl]methanone]
  IC50: 210 nM

## Cc1cnccc1-c1cccc(C(=O)N2CCN3C[C@@H](c4ccc(F)c(Cl)c4)OC[C@@H]3C2)c1Cl [Example 28, [(3R,9aS)-3-(3-chloro-4-fluoro-phenyl)-3,4,6,7,9,9a-hexahydro-1H-pyrazino[2,1-c][1,4]oxazin-8-yl]-[2-chloro-3-(3-methyl-4-pyridyl)phenyl]methanone]
  IC50: 32.6 nM
